In patent publication US20150119394A1, “Insulin-Like Growth Factor-1 Receptor Inhibitors” (Merck Sharp & Dohme Corp., priority 2012, published 2015):

Target: T1, intracellular kinase domain of human IGF-1R (GST fusion protein) (Homo sapiens, UniProt P08069)
T1 construct: IGFRK and IRK enzyme used for the assay was intracellular kinase domain of human IGF-1R; GST; made in house
Test: In vitro IGF-1R kinase assay (HTRF)
Type: biochemical
Conditions: ATP 20 μM, IGFRK 0.25 nM
Protocol: The in vitro kinase assays using IGF-1R and IR kinase GST fusion proteins were conducted using a homogeneous time-resolved fluorescence (HTRF) format. Kinase reactions were carried out in a 384-well plate format in a final volume of 20 μL. The standard enzyme reaction buffer consisted of 50 mM Tris HCL (pH: 7.4), 1 mM EGTA, 10 mM MgCl2, 2 mM DTT, 0.01% Tween-20, IGF-1R/IR kinase enzyme, poly GT peptide substrate (Perkin Elmer [Ulight Glu-Tyr (4:1)]n) and ATP [concentration equivalent to Kmapp] […] Briefly, 2.5 μL enzyme and 2.5 μL inhibitor was preincubated for 10 minutes at 23° C. followed by the addition of 2.5 μL of poly GT substrate (final concentration of 50 nM). Reaction was initiated with the addition of 2.5 μL of ATP (final concentration of 20 μM for IGF-1R assay and 10 μM for IR assay). After 1 hour incubation at 23° C., the kinase reaction was stopped with the addition of 5 μL EDTA (final concentration of 10 mM in 20 μL). Europium cryptate—labeled antiphosphotyrosine antibody PY20 (5 μL) was added (final concentration of 2 nM) and the mixture was allowed to equilibrate for 1 hour at 23° C. followed by reading the plate in an Envision plate reader.
The intensity of light emission at 665 nm was directly proportional to the level of substrate phosphorylation. The IC50 values for inhibitors were determined by a four-parameter sigmoidal curve fit (Sigma plot or Graph pad).
IGFRK and IRK enzyme used for the assay was intracellular kinase domain of human IGF-1R and human IR cloned and expressed as GST fusion proteins using the baculovirus expression system and purified using glutathione—Sepharose column.

T1 sequence (P08069 999-1274 limits assumed): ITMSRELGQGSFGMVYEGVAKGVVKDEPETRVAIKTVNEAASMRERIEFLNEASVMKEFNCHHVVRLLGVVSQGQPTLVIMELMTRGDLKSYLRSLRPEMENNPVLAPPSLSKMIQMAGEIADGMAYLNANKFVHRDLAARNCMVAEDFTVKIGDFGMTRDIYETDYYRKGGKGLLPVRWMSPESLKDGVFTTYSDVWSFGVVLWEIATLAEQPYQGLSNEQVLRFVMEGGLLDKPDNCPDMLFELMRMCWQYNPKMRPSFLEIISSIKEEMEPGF

IC50	Compound
7.3 nM	COc1cc(-c2cccc(OC[C@@H]3CN(S(=O)(=O)c4c(C(N)=O)[nH]c5ccc(Cl)cc45)CCO3)c2)ccn1 [Compound 18, (S)-5-chloro-3-((2-((3-(2-methoxypyridin-4-yl)phenoxy)methyl)morpholino)sulfonyl)-1H-indole-2-carboxamide]
206 nM	COc1ccc(-c2ccc(OC[C@@H]3CN(S(=O)(=O)c4c(C(N)=O)[nH]c5ccc(Cl)cc45)CCO3)cc2)cc1 [Compound 39, (S)-5-chloro-3-((2-(((4′-methoxy-[1,1′-biphenyl]-4-yl)oxy)methyl)morpholino)sulfonyl)-1H-indole-2-carboxamide]
42.5 nM	Cc1ccc(OC[C@@H]2CN(S(=O)(=O)c3c(C(N)=O)[nH]c4ccc(Cl)cc34)CCO2)cc1-c1cccnc1F [Compound 22, (S)-5-chloro-3-((2-((3-(2-fluoropyridin-3-yl)-4-methylphenoxy)methyl)morpholino)sulfonyl)-1H-indole-2-carboxamide]
> 100 nM	Cc1cccc(-c2cccc(OC[C@@H]3CN(S(=O)(=O)c4c(C(N)=O)[nH]c5ccc(Cl)cc45)CCO3)c2)c1 [Compound 14, (S)-5-chloro-3-((2-(((3′-methyl-[1,1′-biphenyl]-3-yl)oxy)methyl)morpholino)sulfonyl)-1H-indole-2-carboxamide]
> 100 nM	NC(=O)c1[nH]c2ccc(Cl)cc2c1S(=O)(=O)N1CCO[C@H](COc2ncnc3ccccc23)C1 [Compound 91, (S)-5-chloro-3-((2-((quinazolin-4-yloxy)methyl)morpholino)sulfonyl)-1H-indole-2-carboxamide]
> 1000 nM	NC(=O)c1[nH]c2ccc(Cl)cc2c1S(=O)(=O)N1CCO[C@H](COc2ccccc2-c2cccnc2F)C1 [Compound 57, (S)-5-chloro-3-((2-((2-(2-fluoropyridin-3-yl)phenoxy)methyl)morpholino)sulfonyl)-1H-indole-2-carboxamide]
3.4 nM	NC(=O)c1[nH]c2ccc(Cl)cc2c1S(=O)(=O)N1CCO[C@H](COc2cccc(-c3ccnc(F)c3)c2)C1 [Compound 13, (S)-5-chloro-3-((2-((3-(2-fluoropyridin-4-yl)phenoxy)methyl)morpholino)sulfonyl)-1H-indole-2-carboxamide]
75.9 nM	COc1cc(-c2ccc(OC[C@@H]3CN(S(=O)(=O)c4c(C(N)=O)[nH]c5ccc(Cl)cc45)CCO3)cc2C)ccn1 [Compound 70, (S)-5-chloro-3-((2-((4-(2-methoxypyridin-4-yl)-3-methylphenoxy)methyl)morpholino)sulfonyl)-1H-indole-2-carboxamide]
> 100 nM	NC(=O)c1[nH]c2ccc(Cl)cc2c1S(=O)(=O)N1CCO[C@H](COc2cccc3cccnc23)C1 [Compound 90, (S)-5-chloro-3-((2-((quinolin-8-yloxy)methyl)morpholino)sulfonyl)-1H-indole-2-carboxamide]
> 1000 nM	CN(C)c1ccc(-c2ccc(OC[C@@H]3CN(S(=O)(=O)c4c(C(N)=O)[nH]c5ccc(Cl)cc45)CCO3)cc2)cn1 [Compound 34, (S)-5-chloro-3-((2-((4-(6-(dimethylamino)pyridin-3-yl)phenoxy)methyl)morpholino)sulfonyl)-1H-indole-2-carboxamide]
97 nM	NC(=O)c1[nH]c2ccc(Cl)cc2c1S(=O)(=O)N1CCO[C@H](COc2ccc(-c3ccccc3Cl)cc2)C1 [Compound 83, (S)-5-chloro-3-((2-(((2′-chloro-[1,1′-biphenyl]-4-yl)oxy)methyl)morpholino)sulfonyl)-1H-indole-2-carboxamide]

Further lines, the compound ahead of its results:

Compound	IC50
Cc1ncccc1-c1ccccc1OC[C@@H]1CN(S(=O)(=O)c2c(C(N)=O)[nH]c3ccc(Cl)cc23)CCO1 [Compound 63, (S)-5-chloro-3-((2-((2-(2-methylpyridin-3-yl)phenoxy)methyl)morpholino)sulfonyl)-1H-indole-2-carboxamide]	> 1000 nM
Cc1cc(OC[C@@H]2CN(S(=O)(=O)c3c(C(N)=O)[nH]c4ccc(Cl)cc34)CCO2)ccc1-c1ccc(F)nc1 [Compound 73, (S)-5-chloro-3-((2-((4-(6-fluoropyridin-3-yl)-3-methylphenoxy)methyl)morpholino)sulfonyl)-1H-indole-2-carboxamide]	30 nM
Cc1ccccc1-c1ccc(OC[C@@H]2CN(S(=O)(=O)c3c(C(N)=O)[nH]c4ccc(Cl)cc34)CCO2)cc1 [Compound 41, (S)-5-chloro-3-((2-(((2′-methyl-[1,1′-biphenyl]-4-yl)oxy)methyl)morpholino)sulfonyl)-1H-indole-2-carboxamide]	184 nM
COc1ccccc1-c1ccc(OC[C@@H]2CN(S(=O)(=O)c3c(C(N)=O)[nH]c4ccc(Cl)cc34)CCO2)cc1 [Compound 36, (S)-5-chloro-3-((2-(((2′-methoxy-[1,1′-biphenyl]-4-yl)oxy)methyl)morpholino)sulfonyl)-1H-indole-2-carboxamide]	81 nM
NC(=O)c1[nH]c2ccc(Cl)cc2c1S(=O)(=O)N1CCO[C@H](COc2cncc(-c3ccccc3)c2)C1 [Compound 76, (S)-5-chloro-3-((2-(((5-phenylpyridin-3-yl)oxy)methyl)morpholino)sulfonyl)-1H-indole-2-carboxamide]	> 1000 nM
NC(=O)c1[nH]c2ccc(Cl)cc2c1S(=O)(=O)N1CCO[C@H](COc2ccc(-c3ccccc3F)cc2)C1 [Compound 42, (S)-5-chloro-3-((2-(((2′-fluoro-[1,1′-biphenyl]-4-yl)oxy)methyl)morpholino)sulfonyl)-1H-indole-2-carboxamide]	119 nM
NC(=O)c1[nH]c2ccc(Cl)cc2c1S(=O)(=O)N1CCO[C@H](COc2ccc(-c3ccccc3OC(F)(F)F)cc2)C1 [Compound 40, (S)-5-chloro-3-((2-(((2′-(trifluoromethoxy)-[1,1′-biphenyl]-4-yl)oxy)methyl)morpholino)sulfonyl)-1H-indole-2-carboxamide]	361 nM
NC(=O)c1[nH]c2ccc(Cl)cc2c1S(=O)(=O)N1CCO[C@H](COc2ccc(F)c(-c3ccncc3)c2)C1 [Compound 28, (S)-5-chloro-3-((2-((4-fluoro-3-(pyridin-4-yl)phenoxy)methyl)morpholino)sulfonyl)-1H-indole-2-carboxamide]	6.9 nM
(S)-5-chloro-3-((2-((3′-(dimethylamino)-[1,1′-biphenyl]-3-yl)oxy)methyl)morpholino)sulfonyl)-1H-indole-2-carboxamide [Compound 9]	220 nM
Cc1cc(OC[C@@H]2CN(S(=O)(=O)c3c(C(N)=O)[nH]c4ccc(Cl)cc34)CCO2)ccc1-c1ccncc1 [Compound 67, (S)-5-chloro-3-((2-((3-methyl-4-(pyridin-4-yl)phenoxy)methyl)morpholino)sulfonyl)-1H-indole-2-carboxamide]	4.3 nM
COc1ccc(-c2ccc(OC[C@@H]3CN(S(=O)(=O)c4c(C(N)=O)[nH]c5ccc(Cl)cc45)CCO3)cc2C)cn1 [Compound 69, (S)-5-chloro-3-((2-((4-(6-methoxypyridin-3-yl)-3-methylphenoxy)methyl)morpholino)sulfonyl)-1H-indole-2-carboxamide]	> 100 nM
Cc1ncccc1-c1ccc(OC[C@@H]2CN(S(=O)(=O)c3c(C(N)=O)[nH]c4ccc(Cl)cc34)CCO2)cc1 [Compound 50, (S)-5-chloro-3-((2-((4-(2-methylpyridin-3-yl)phenoxy)methyl)morpholino)sulfonyl)-1H-indole-2-carboxamide]	3.2 nM
